Laboratory results reported in ChEMBL document CHEMBL1153966, “Synthesis, cytotoxicity, and haemolytic activity of chacotrioside lupane-type neosaponins and their germanicane-type rearrangement products” (Bioorg Med Chem Lett, 2009).

Columns and labels:
[1] = test system: A549; experiment: Cytotoxicity against human A549 cells by resazurin reduction test; type: functional, cell-based
[2] = test system: MCF7; experiment: Cytotoxicity against human MCF7 cells by resazurin reduction test; type: functional, cell-based
[3] = Cytotoxicity against human WS1 cells by resazurin reduction test; type: cell-based
[4] = Toxicity in sheep erythrocytes assessed as induction of hemolysis; type: cell-based, Ovis aries, Erythrocyte; conditions: read-out: HD50 (the source's name)
[5] = test system: DLD-1; experiment: Cytotoxicity against human DLD1 cells by resazurin reduction test; type: functional, cell-based
[6] = test system: PC-3; experiment: Cytotoxicity against human PC3 cells by resazurin reduction test; type: functional, cell-based

Row | SMILES | IC50 [1] [µM] | IC50 [2] [µM] | IC50 [3] [µM] | HC50 [4] [µM] | IC50 [5] [µM] | IC50 [6] [µM]
1 | C[C@@H]1O[C@@H](O[C@H]2[C@H](O[C@H]3CC[C@]4(C)[C@H]5CC[C@@H]6[C@H]7[C@H]8OC[C@@]7(CCC8(C)C)CC[C@@]6(C)[C@]5(C)CC[C@H]4C3(C)C)O[C@H](CO)[C@@H](O[C@@H]3O[C@@H](C)[C@H](O)[C@@H](O)[C@H]3O)[C@@H]2O)[C@H](O)[C@H](O)[C@H]1O | 14 | 15 | 9 | 90 | 13 | 13
2 | C[C@@H]1O[C@@H](O[C@H]2[C@H](O[C@H]3CC[C@]4(C)[C@H]5CC[C@@H]6[C@H]7[C@H]8OC(=O)[C@@]7(CCC8(C)C)CC[C@@]6(C)[C@]5(C)CC[C@H]4C3(C)C)O[C@H](CO)[C@@H](O[C@@H]3O[C@@H](C)[C@H](O)[C@@H](O)[C@H]3O)[C@@H]2O)[C@H](O)[C@H](O)[C@H]1O | 13 | 18 | 3.8 | 8 | 14 | 10
3 | C=C(C)[C@@H]1CC[C@]2(C)CC[C@]3(C)[C@H](CC[C@@H]4[C@@]5(C)CC[C@H](O[C@@H]6O[C@H](CO)[C@@H](O[C@@H]7O[C@@H](C)[C@H](O)[C@@H](O)[C@H]7O)[C@H](O)[C@H]6O[C@@H]6O[C@@H](C)[C@H](O)[C@@H](O)[C@H]6O)C(C)(C)[C@@H]5CC[C@]43C)[C@@H]12 | > 50 | > 50 | > 50 | 30 | > 50 | > 50
4 | C=C(C)[C@@H]1CC[C@]2(CO)CC[C@]3(C)[C@H](CC[C@@H]4[C@@]5(C)CC[C@H](O[C@@H]6O[C@H](CO)[C@@H](O[C@@H]7O[C@@H](C)[C@H](O)[C@@H](O)[C@H]7O)[C@H](O)[C@H]6O[C@@H]6O[C@@H](C)[C@H](O)[C@@H](O)[C@H]6O)C(C)(C)[C@@H]5CC[C@]43C)[C@@H]12 | > 50 | > 50 | > 50 | > 100 | > 50 | > 50
5 | C=C(C)[C@@H]1CC[C@]2(C(=O)O)CC[C@]3(C)[C@H](CC[C@@H]4[C@@]5(C)CC[C@H](O[C@@H]6O[C@H](CO)[C@@H](O[C@@H]7O[C@@H](C)[C@H](O)[C@@H](O)[C@H]7O)[C@H](O)[C@H]6O[C@@H]6O[C@@H](C)[C@H](O)[C@@H](O)[C@H]6O)C(C)(C)[C@@H]5CC[C@]43C)[C@@H]12 | > 50 | > 50 | > 50 | > 100 | > 50 | > 50
6 | CC1(C)CC[C@]23CC[C@]4(C)[C@H](CC[C@@H]5[C@@]6(C)CC[C@H](O)C(C)(C)[C@@H]6CC[C@]54C)[C@H]2[C@H]1OC3=O | > 50 | > 50 | > 50 | > 100 | > 50 | > 50
7 | CC1(C)CC[C@]23CC[C@]4(C)[C@H](CC[C@@H]5[C@@]6(C)CC[C@H](O)C(C)(C)[C@@H]6CC[C@]54C)[C@H]2[C@H]1OC3 [ALLOBETULIN] | > 50 | > 50 | > 50 | > 100 | > 50 | > 50
8 | C=C(C)[C@@H]1CC[C@]2(C(=O)O)CC[C@]3(C)[C@H](CC[C@@H]4[C@@]5(C)CC[C@H](O)C(C)(C)[C@@H]5CC[C@]43C)[C@@H]12 [BETULINIC ACID] | – | – | 12 | > 100 | – | –
9 | C=C(C)[C@@H]1CC[C@]2(CO)CC[C@]3(C)[C@H](CC[C@@H]4[C@@]5(C)CC[C@H](O)C(C)(C)[C@@H]5CC[C@]43C)[C@@H]12 [BETULIN] | – | – | 3.6 | > 100 | – | –
10 | C=C(C)[C@@H]1CC[C@]2(C)CC[C@]3(C)[C@H](CC[C@@H]4[C@@]5(C)CC[C@H](O)C(C)(C)[C@@H]5CC[C@]43C)[C@@H]12 [LUPEOL] | > 50 | > 50 | > 50 | > 100 | > 50 | > 50
